Test results reported in US20100160178A1, “SYSTEM AND METHOD FOR PRESENTING DNA BINDING SPECIFICITIES USING SPECIFICITY LANDSCAPES” (priority 2008, published 2010).
Each block holds one molecule with its values, some of them ahead of it.

Tests used:
[1] = tested on: every possible 9-mer DNA sequence; assay: CSI array and specificity landscape of Nkx-2.5; type: binding
Source text: (§1) CSI arrays can display the entire sequence space for about 2-10 variable base pair positions. Additionally, CSI arrays can display the entire sequence space for more than 10 base pair positions. Data relating to the binding affinities between the binding molecule and a sample set of DNA sequences (“N-mers”) has been obtained from the CSI DNA microarrays, in which every N-mer sequence is correlated to a fluorescent intensity value. The fluorescent intensity value indicates the amount of interaction between a specific N-mer and the DNA-binding molecule of interest and is proportional to binding affinity. The affinity value is the form of an equilibrium association constant (KA), or a KD value may be converted to KA by the relationship of KA=1/KD. Any biochemical/biophysical technique, other than DNA microarrays, can be used to obtain binding affinities, but these affinities must be related to a specific DNA sequence to be appropriate input for the specificity landscape.
The cognate site identifier array is a high through put approach for providing a comprehensive profile of the binding properties of DNA-binding molecules. CSI arrays display every permutation of a duplex DNA sequence on a microfabricated array. […]

[2] = tested on: duplex DNA microarray that displays the entire sequence space; assay: CSI (cognate site identifier) array and specificity landscape of the polyamide; type: binding
Source text: as §1
This particular approach is an example of the data input to the specificity landscape algorithm. In particular, the present approach provides a comprehensive and unbiased understanding of the sequence-specificity of DNA binding molecules. Structural DNA variants are all examined to explore the importance of DNA structure on cognate site recognition by these ligands (data not shown). This particular example examines sequences and structural preferences of a small molecule polyamide (ImImPy*Py-γ-PyPyPyPy-β-Dp) designed to recognize the sequence 5′-W-W-G-G-W-W-W-3′ (W=A or T). […] The more distorted, or non-duplex, the DNA becomes the less affinity the polyamide has for that particular DNA sequence. Based upon previous knowledge of this polyamide, the specificity landscape unexpectedly uncovered unique insight into the polyamide relating to sequence and structural specificity of the polyamide-DNA interactions. […] The relative affinity of a particular sequence is represented by the height of the peak. The landscape provides a valuable tool to researchers looking for both the consensus sequences as well as those with the highest affinity.
Each sequence on the array is given a z-score which indicates the probability of a sequence being preferentially bound by the polyamide. As such, each sequence on the array has an intensity denoting the affinity of the polyamide to the sequence. The z-score is calculated using Equation Set 1. The sequences in the highest z-score bins, or with the highest intensities, fit the 5′-W-W-G-G-W-W-W-3′
Z=|intensity−average|/standard deviation Equation Set 1
The cognate site identifier array is a high through put approach for providing a comprehensive profile of the binding properties of DNA-binding molecules. CSI arrays display every permutation of a duplex DNA sequence on a microfabricated array. The CSI is a standard type array where each square (microarray feature) is assigned a specific nucleotide sequence, which includes a linker and a palindromic sequence with a 3-5 nucleotide turn in the middle. This palindromic sequence forms a double-stranded DNA region comprised of, for example, 8 base pairs that represents a specific permutation of an 8mer sequence. The central region of the sequence is buried, by example all or a subset of, 8 base pairs for a given 8-mer sequence. Approximately one million of the same sequences are provided for each square, each being one of the possible 8-mer sequences. A fluorescently labeled compound or antibody is included. […]

DNA sequences = assay: Specificity landscapes of DNA-binding proteins (FIGS. 8-10); conditions: circular specificity landscape

binding to non-B-form DNA bearing high affinity sequences ([2]; relative to the duplex): appreciable binding
Molecule: ImImPy*Py-γ-PyPyPyPy-β-Dp [polyamide]
base preference at position 5 [2]: prefers a T at position 5
DNA conformer preference ([2]; B-form duplex vs structural DNA variants): prefers double-stranded DNA
affinity across permutations of the consensus motif WWGGWWW ([2]; innermost ring (Ring 1) of landscape): does not bind all the permutations of the consensus motif (WWGGWWW) with equal affinity
positions of the motif where mutations are tolerated ([2]; one mismatch ring): tolerates mutations at positions 1 and 3

DNA sequence bound (DNA sequences): 5′-ARGGG-3′
B1: msn2: yeast protein msn2 (protein, UniProt P33748 1-704, looked up)
Zinc finger protein MSN2: MTVDHDFNSEDILFPIESMSSIQYVENNNPNNINNDVIPYSLDIKNTVLDSADLNDIQNQETSLNLGLPPLSFDSPLPVTETIPSTTDNSLHLKADSNKNRDARTIENDSEIKSTNNASGSGANQYTTLTSPYPMNDILYNMNNPLQSPSPSSVPQNPTINPPINTASNETNLSPQTSNGNETLISPRAQQHTSIKDNRLSLPNGANSNLFIDTNPNNLNEKLRNQLNSDTNSYSNSISNSNSNSTGNLNSSYFNSLNIDSMLDDYVSSDLLLNDDDDDTNLSRRRFSDVITNQFPSMTNSRNSISHSLDLWNHPKINPSNRNTNLNITTNSTSSSNASPNTTTMNANADSNIAGNPKNNDATIDNELTQILNEYNMNFNDNLGTSTSGKNKSACPSSFDANAMTKINPSQQLQQQLNRVQHKQLTSSHNNSSTNMKSFNSDLYSRRQRASLPIIDDSLSYDLVNKQDEDPKNDMLPNSNLSSSQQFIKPSMILSDNASVIAKVATTGLSNDMPFLTEEGEQNANSTPNFDLSITQMNMAPLSPASSSSTSLATNHFYHHFPQQGHHTMNSKIGSSLRRRKSAVPLMGTVPLTNQQNNISSSSVNSTGNGAGVTKERRPSYRRKSMTPSRRSSVVIESTKELEEKPFHCHICPKSFKRSEHLKRHVRSVHSNERPFACHICDKKFSRSDNLSQHIKTHKKHGDI

Second part, the molecule before the results:

Molecule: Nkx-2.5: Nk2 transcription factor related, locus 5; earliest heart lineage marker; mouse DNA-binding protein
DNA binding motif from specificity landscape [1]: TNAAGTG and NTAAGTG
binding of sequences identical to motif TTAAGTG ([1]; relative intensities, all possible 9-mers): bind well

Molecule: gata4: mouse protein gata4
DNA sequence bound (DNA sequences): 5′-WGATAA-3′
